Test results taken from patent US12376589B2, “Chryseobacterium insect inhibitory microbial compositions and methods of making and using” (priority 2021, dated 2025).
In brackets after ≈: the same amount, converted by molar mass. Entries after “also recorded” stand apart in the source; their conditions may differ. Like-named read-outs stand apart in the source and are kept apart here.

Key:
Aedes aegypti larvae = assay: whole plant or invertebrate; details: for LC50: Aedes aegypti
Excerpt: (§1) Measuring potency of 3,3-diindolylmethane and 3-((1H-indol-2-yl)methyl)-1H-indole. 3,3′-Diindolylmethane (also called arundine, CAS number: 1968-05-4) was purchased from MILLIPORESIGMA (cat #74601) and Cayman Chemical (catalog #15927). 3-((1H-indol-2-yl)methyl)-1H-indole (CAS number: 114648-66-7) was purchased from Ambeed (catalog #A735658). Compounds were resuspended in dimethyl sulfoxide (DMSO). For collecting data to construct dose curves for 3,3-diindolylmethane and 3-((1H-indol-2-yl)methyl)-1H-indole, a series of twenty 1:2 dilutions was made to test in bioassays, establish a dose curve, and determine the LC50 value.
(§2) Aedes aegypti bioassays with compounds. Assays were performed using second or third instar larvae, with biological replication. Larvae were washed with sterile water before transfer to 24-well assay plates containing 1 mL of sterile water in each well. Each well contained 5 larvae. Compound dilutions were made in DMSO, topped with sterile NYSM broth and applied to each assay well. The final DMSO concentration was 1% in each assay well. Larval mortality was scored for each well at 24-hour timepoints after application.
Heat treatments. Samples were heated in 1.5-mL microfuge tubes in a standard laboratory heat block at the indicated temperature and time.
The EtOAc fraction was redissolved in MeOH and subjected to chromatographic fractionation (FIG. 11C) using preparative reversed-phase HPLC (Phenomenex Luna phenylhexyl, 21.2 mm×15 cm, 5 μm, 20 mL/min, isocratic elution with 80% H2O/MeCN for 2 min followed by gradient elution from 80% H2O/MeCN to 100% MeCN over 30 min then isocratic elution with 100% MeCN for 5 min) to yield 30 fractions. The preparative HPLC fractions (at concentrations of 200 μg/mL and 20 μg/mL) were tested against Aedes aegypti.

[1] = tested on: Culex quinquefasciatus larvae; assay: whole plant or invertebrate
Excerpt: as §1
as §2, with “Culex quinquefasciatus” for “Aedes aegypti”, “compounds. First or second instar Culex quinquefasciatus larvae were purchased from Benzon Research, Inc. (Carlisle, PA).” for “compounds.”, “with” for “using second or”, “larvae.” for “larvae, with biological replication.”, “Larvae” for “Larval”

[2] = tested on: Heliothis virescens (tobacco budworm); assay: whole plant or invertebrate
Method: (§3) Lepidopteran bioassays. Lepidopteran bioassays were performed at Benzon Research, Inc. (Carlisle, PA). 3,3′-Diindolylmethane samples were solubilized in dimethyl sulfoxide (DMSO). Samples were then frozen and shipped to Benzon. Samples were resuspended with 9× volumes of water before application to the assay well. The final DMSO concentration in the assay well was 2%. PLU6 extract samples were prepared as a series of three 1:5 dilutions in dimethyl sulfoxide. Samples were then further diluted with fresh NYSM broth, then shipped to Benzon Research for use in a diet overlay assay. Assays were performed using neonate larvae of 14 different Lepidopteran species (Anticarsia gemmatalis (velvetbean caterpillar), Diatraea grandiosella (southwestern corn borer), Diatraea saccharalis (sugarcane borer), Ostrinia nubilalis (European corn borer), Trichoplusia ni (cabbage looper), Chrysodeixis includens (soybean looper), Spodoptera exigua (beet armyworm), Spodoptera frugiperda (fall armyworm), Spodoptera eridania (southern armyworm), Chloridia virescens (tobacco budworm), Helicoverpa zea (corn earworm), Agrotis ipsilon (black cutworm), Cydia pomonella (codling moth), Plutella xylostella (diamondback moth) with an N=16 or N=32, apart from P. xylostella, for which third instar larvae were used. A diet-surface overlay format was used, in which 500 microliters of diet was placed in each well. One hundred microliters of sample was then pipetted into each well and allowed to dry. A DMSO control was included with each set of samples. An internal Btk (Bacillus thurengiensis kurstaki) standard at a concentration of 1000 ppm was used as a positive control, and water was used as a negative control.
(§4) Experiments were conducted in which mortality of lepidopteran larvae was measured after 7 days of diet overlay treatment with 3,3′-diindolylmethane at the concentrations indicated in Table 3. Mean mortalities and standard deviations were calculated from three independent experiments (each N=16). For each experiment, mortalities were corrected using Abbott's formula (Abbott (1987) “Method of computing the effectiveness of an insecticide” J. American Mosquito Control Association 2: 302-03, incorporated herein by reference). For all species except Plutella xylostella, neonates were used. For P. xylostella, third instar larvae were used. The positive control used was 1000 ppm of Bacillus thuringiensis kurstaki.

[3] = tested on: Spodoptera frugiperda (fall armyworm); assay: whole plant or invertebrate
Method: as §3, §4

[4] = tested on: Trichoplusia ni (cabbage looper); details: for Mortality, Trichoplusia ni (cabbage looper): 7 days diet overlay, neonates, mean of three experiments (each N=16), Abbott's formula; for Mortalities (%) after 7 days of treatment (Abbott’s Correction), CL: Trichoplusia ni (cabbage looper)
Method: as §3, §4

[5] = tested on: Ostrinia nubilalis (European corn borer); assay: Lepidopteran diet overlay bioassay
Method: as §3, §4

[6] = tested on: Plutella xylostella (diamondback moth); assay: Lepidopteran diet overlay bioassay
Method: as §3, §4

[7] = tested on: Anticarsia gemmatalis (velvetbean caterpillar); assay: whole plant or invertebrate
Method: as §3

[8] = tested on: Spodoptera exigua (beet armyworm); assay: whole plant or invertebrate
Method: as §3

[9] = tested on: Agrotis ipsilon (black cutworm); assay: Lepidopteran diet overlay bioassay
Method: as §3

[10] = tested on: Chrysodeixis includens (soybean looper); assay: Lepidopteran diet overlay bioassay; details: in Glycine max, 168 h, read-out: Mortalities (%) after 7 days of treatment (Abbott’s Correction), SBL
Method: as §3

[11] = tested on: Cydia pomonella (codling moth); assay: Lepidopteran diet overlay bioassay; details: 168 h, read-out: Mortalities (%) after 7 days of treatment (Abbott’s Correction), CM
Method: as §3

[12] = tested on: Diatraea grandiosella (southwestern corn borer); assay: Lepidopteran diet overlay bioassay; details: in Zea mays, 168 h, read-out: Mortalities (%) after 7 days of treatment (Abbott’s Correction), SWCB
Method: as §3

[13] = tested on: Diatraea saccharalis (sugarcane borer); assay: Lepidopteran diet overlay bioassay; details: 168 h, read-out: Mortalities (%) after 7 days of treatment (Abbott’s Correction), SCB
Method: as §3

[14] = tested on: Helicoverpa zea (corn earworm); assay: Lepidopteran diet overlay bioassay; details: 168 h, read-out: Mortalities (%) after 7 days of treatment (Abbott’s Correction), CEW
Method: as §3

[15] = tested on: Spodoptera eridania (southern armyworm); assay: Lepidopteran diet overlay bioassay; details: 168 h, read-out: Mortalities (%) after 7 days of treatment (Abbott’s Correction), SAW
Method: as §3

[16] = tested on: Drosophila suzukii (spotted wing Drosophila); assay: Drosophila suzukii diet incorporation assay; format: in vivo; details: 100, 500, 1000 μg/mL
Method: During the development of embodiments of the technology described herein, experiments were conducted to assess the activity of 3,3′-diindolylmethane against Drosophila suzukii. […] A1X=100 μg/mL; A5X=500 μg/mL; A10X=1000 μg/mL. Each concentration was tested with 10 vials containing 20 D. suzukii L2 larvae. “Dpi” indicates days post infestation (0 dpi is the day of egg-laying).

[17] = read-out: LC50 (representative curve fit)
[18] = Heliothis virescens, 168 h, read-out: Mortalities (%) after 7 days of treatment (Abbott’s Correction), TBW
[19] = Heliothis virescens, 168 h, read-out: Mortality, Heliothis virescens (tobacco budworm)
[20] = Spodoptera frugiperda, 168 h, read-out: Mortalities (%) after 7 days of treatment (Abbott’s Correction), FAW
[21] = Spodoptera frugiperda, 168 h, read-out: Mortality, Spodoptera frugiperda (fall armyworm)
[22] = Ostrinia nubilalis, 168 h, read-out: Mortality, Ostrinia nubilalis (European corn borer)
[23] = Plutella xylostella, 168 h, read-out: Mortalities (%) after 7 days of treatment (Abbott’s Correction), DBM
[24] = Plutella xylostella, 168 h, read-out: Mortality, Plutella xylostella (diamondback moth)
[25] = Anticarsia gemmatalis, 168 h, read-out: Mortalities (%) after 7 days of treatment (Abbott’s Correction), VBC
[26] = Spodoptera exigua, 168 h, read-out: Mortalities (%) after 7 days of treatment (Abbott’s Correction), BAW
[27] = Agrotis ipsilon, 168 h, read-out: Mortalities (%) after 7 days of treatment (Abbott’s Correction), BCW

c1ccc2c(Cc3c[nH]c4ccccc34)c[nH]c2c1 [3,3′-diindolylmethane, 3,3′-Diindolylmethane]
LC50 (Aedes aegypti larvae; [17]): 10.2 µg/mL (≈ 41.4 µM) | LC50 (Aedes aegypti larvae; read-out: mean LC50): 7.5 ± 3 µg/mL (≈ 30.4 µM) | activity against Aedes aegypti larvae (Aedes aegypti larvae; in vivo): exhibited larvicidal activity | LC50 [1, 17]: 7.5 µg/mL (≈ 30.4 µM) | mortality at 156.25 µg/mL [2, 18]: 74.2% | mortality at 625 µg/mL [2, 18]: 74.2% | mortality at 2500 µg/mL [2, 18]: 87.1% | mortality at 9.77 µg/mL [2, 19]: 3.16% | mortality at 39.06 µg/mL [2, 19]: 40.9% | mortality at 156.25 µg/mL [2, 19]: 85.2% | mortality at 625 µg/mL [2, 19]: 93.8% | mortality at 2500 µg/mL [2, 19]: 83.3% | activity against tobacco budworm ([2]; diet overlay): active; also recorded: dose-dependent activity | mortality at 156.25 µg/mL [3, 20]: 40% | mortality at 625 µg/mL [3, 20]: 63.3% | mortality at 2500 µg/mL [3, 20]: 96.7% | mortality at 9.77 µg/mL [3, 21]: 4.1% | mortality at 39.06 µg/mL [3, 21]: 2.15% | mortality at 156.25 µg/mL [3, 21]: 79% | mortality at 625 µg/mL [3, 21]: 85.1% | mortality at 2500 µg/mL [3, 21]: 95.7% | activity against Spodoptera frugiperda ([3]; diet overlay): active; also recorded: dose-dependent activity | Mortality, Trichoplusia ni (cabbage looper) ([4]; 39.06 μg/mL): 3.00% | Mortality, Trichoplusia ni (cabbage looper) ([4]; 156.25 μg/mL): 22.95% | Mortalities (%) after 7 days of treatment (Abbott’s Correction), CL ([4]; 156.25 μg/mL, diet overlay): 41.4% | Mortality, Trichoplusia ni (cabbage looper) ([4]; 625 μg/mL): 44.60% | Mortalities (%) after 7 days of treatment (Abbott’s Correction), CL ([4]; 625 μg/mL, diet overlay): 72.4% | Mortality, Trichoplusia ni (cabbage looper) ([4]; 2500 μg/mL): 93.25% | Mortalities (%) after 7 days of treatment (Abbott’s Correction), CL ([4]; 2500 μg/mL, diet overlay): 93.1% | activity against Trichoplusia ni ([4]; diet overlay): active; also recorded: dose-dependent activity | mortality at 9.77 µg/mL [5, 22]: 2.08% | mortality at 39.06 µg/mL [5, 22]: 2.08% | mortality at 156.25 µg/mL [5, 22]: 4.17% | mortality at 625 µg/mL [5, 22]: 6.25% | mortality at 2500 µg/mL [5, 22]: 4.17% | activity against O. nubilalis ([5]; diet overlay): low or not observed | mortality at 156.25 µg/mL [6, 23]: 19.4% | mortality at 625 µg/mL [6, 23]: 6.5% | mortality at 2500 µg/mL [6, 23]: 19.4% | mortality at 9.77 µg/mL [6, 24]: 1.01% | mortality at 39.06 µg/mL [6, 24]: 1.07% | mortality at 156.25 µg/mL [6, 24]: 7.39% | mortality at 625 µg/mL [6, 24]: 15.7% | mortality at 2500 µg/mL [6, 24]: 43.4% | activity against P. xylostella ([6]; diet overlay): low or not observed | mortality at 156.25 µg/mL [7, 25]: 100% | mortality at 625 µg/mL [7, 25]: 70% | mortality at 2500 µg/mL [7, 25]: 96.7% | activity against Anticarsia gemmatalis ([7]; diet overlay): active; also recorded: dose-dependent activity | mortality at 156.25 µg/mL [8, 26]: 71.9% | mortality at 625 µg/mL [8, 26]: 93.8% | mortality at 2500 µg/mL [8, 26]: 71.9% | activity against Spodoptera exigua ([8]; diet overlay): active; also recorded: dose-dependent activity | mortality at 156.25 µg/mL [9, 27]: 0% | mortality at 625 µg/mL [9, 27]: 26.7% | mortality at 2500 µg/mL [9, 27]: 20% | activity against A. ipsilon ([9]; diet overlay): low or not observed | mortality at 156.25 µg/mL [10]: 26.7% | mortality at 625 µg/mL [10]: 50% | mortality at 2500 µg/mL [10]: 80% | mortality at 156.25 µg/mL [11]: 21.4% | mortality at 625 µg/mL [11]: 50% | mortality at 2500 µg/mL [11]: 39.3% | mortality at 156.25 µg/mL [12]: 46.7% | mortality at 625 µg/mL [12]: 90% | mortality at 2500 µg/mL [12]: 83.3% | mortality at 156.25 µg/mL [13]: 100% | mortality at 625 µg/mL [13]: 100% | mortality at 2500 µg/mL [13]: 100% | mortality at 156.25 µg/mL [14]: 40.6% | mortality at 625 µg/mL [14]: 50% | mortality at 2500 µg/mL [14]: 90.6% | mortality at 156.25 µg/mL [15]: 22.6% | mortality at 625 µg/mL [15]: 100% | mortality at 2500 µg/mL [15]: 100% | egg-to-adult survival [16]: not affected | insecticidal activity against spotted wing Drosophila [16]: did not display insecticidal activity | eclosion rate ([16]; L2 larvae, one-way ANOVA): not affected | pupation rate ([16]; L2 larvae, one-way ANOVA): not affected

c1ccc2[nH]c(Cc3c[nH]c4ccccc34)cc2c1 [3-((1H-indol-2-yl)methyl)-1H-indole]
LC50 (Aedes aegypti larvae; [17]): 5.8 µg/mL (≈ 23.5 µM) | LC50 (Aedes aegypti larvae; read-out: mean LC50): 6.3 ± 2.1 µg/mL (≈ 25.6 µM) | LC50 [1, 17]: 1.5 µg/mL (≈ 6.09 µM) | LC50 ([1]; read-out: mean LC50): 0.95 ± 0.75 µg/mL (≈ 3.86 µM)
